Test results: patent US10150728B2, “Alkylene derivatives” (Shionogi & Co., Ltd., priority 2013, dated 2018)
pIC50: −log10 of the molar value.

Biological target: recombinant human ACC2 (Homo sapiens (Human), UniProt O00763)
Assay: Measurement of inhibitory activity on human ACC2 (MALDI-TOF MS, acetyl CoA to malonyl CoA conversion)
Type: biochemical
Details: Tables 155-159
Procedure, shortened: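 His-tagged human ACC2 (residues 27–2458) from baculovirus-infected Sf-9 cells was preincubated 1 h in pH 7.4 HEPES-KOH buffer with MgCl2, 6-10 mM potassium citrate, glutathione and BSA. Substrate solution held 1 mM ATP, 0.8 mM acetyl CoA and 25-50 mM bicarbonate. After 1–3 h at room temperature, malonyl CoA/(malonyl+acetyl CoA) was read by negative-mode MALDI-TOF MS; citrate, bicarbonate and time varied by enzyme lot.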

Sequence of recombinant human ACC2 (O00763 27-2458): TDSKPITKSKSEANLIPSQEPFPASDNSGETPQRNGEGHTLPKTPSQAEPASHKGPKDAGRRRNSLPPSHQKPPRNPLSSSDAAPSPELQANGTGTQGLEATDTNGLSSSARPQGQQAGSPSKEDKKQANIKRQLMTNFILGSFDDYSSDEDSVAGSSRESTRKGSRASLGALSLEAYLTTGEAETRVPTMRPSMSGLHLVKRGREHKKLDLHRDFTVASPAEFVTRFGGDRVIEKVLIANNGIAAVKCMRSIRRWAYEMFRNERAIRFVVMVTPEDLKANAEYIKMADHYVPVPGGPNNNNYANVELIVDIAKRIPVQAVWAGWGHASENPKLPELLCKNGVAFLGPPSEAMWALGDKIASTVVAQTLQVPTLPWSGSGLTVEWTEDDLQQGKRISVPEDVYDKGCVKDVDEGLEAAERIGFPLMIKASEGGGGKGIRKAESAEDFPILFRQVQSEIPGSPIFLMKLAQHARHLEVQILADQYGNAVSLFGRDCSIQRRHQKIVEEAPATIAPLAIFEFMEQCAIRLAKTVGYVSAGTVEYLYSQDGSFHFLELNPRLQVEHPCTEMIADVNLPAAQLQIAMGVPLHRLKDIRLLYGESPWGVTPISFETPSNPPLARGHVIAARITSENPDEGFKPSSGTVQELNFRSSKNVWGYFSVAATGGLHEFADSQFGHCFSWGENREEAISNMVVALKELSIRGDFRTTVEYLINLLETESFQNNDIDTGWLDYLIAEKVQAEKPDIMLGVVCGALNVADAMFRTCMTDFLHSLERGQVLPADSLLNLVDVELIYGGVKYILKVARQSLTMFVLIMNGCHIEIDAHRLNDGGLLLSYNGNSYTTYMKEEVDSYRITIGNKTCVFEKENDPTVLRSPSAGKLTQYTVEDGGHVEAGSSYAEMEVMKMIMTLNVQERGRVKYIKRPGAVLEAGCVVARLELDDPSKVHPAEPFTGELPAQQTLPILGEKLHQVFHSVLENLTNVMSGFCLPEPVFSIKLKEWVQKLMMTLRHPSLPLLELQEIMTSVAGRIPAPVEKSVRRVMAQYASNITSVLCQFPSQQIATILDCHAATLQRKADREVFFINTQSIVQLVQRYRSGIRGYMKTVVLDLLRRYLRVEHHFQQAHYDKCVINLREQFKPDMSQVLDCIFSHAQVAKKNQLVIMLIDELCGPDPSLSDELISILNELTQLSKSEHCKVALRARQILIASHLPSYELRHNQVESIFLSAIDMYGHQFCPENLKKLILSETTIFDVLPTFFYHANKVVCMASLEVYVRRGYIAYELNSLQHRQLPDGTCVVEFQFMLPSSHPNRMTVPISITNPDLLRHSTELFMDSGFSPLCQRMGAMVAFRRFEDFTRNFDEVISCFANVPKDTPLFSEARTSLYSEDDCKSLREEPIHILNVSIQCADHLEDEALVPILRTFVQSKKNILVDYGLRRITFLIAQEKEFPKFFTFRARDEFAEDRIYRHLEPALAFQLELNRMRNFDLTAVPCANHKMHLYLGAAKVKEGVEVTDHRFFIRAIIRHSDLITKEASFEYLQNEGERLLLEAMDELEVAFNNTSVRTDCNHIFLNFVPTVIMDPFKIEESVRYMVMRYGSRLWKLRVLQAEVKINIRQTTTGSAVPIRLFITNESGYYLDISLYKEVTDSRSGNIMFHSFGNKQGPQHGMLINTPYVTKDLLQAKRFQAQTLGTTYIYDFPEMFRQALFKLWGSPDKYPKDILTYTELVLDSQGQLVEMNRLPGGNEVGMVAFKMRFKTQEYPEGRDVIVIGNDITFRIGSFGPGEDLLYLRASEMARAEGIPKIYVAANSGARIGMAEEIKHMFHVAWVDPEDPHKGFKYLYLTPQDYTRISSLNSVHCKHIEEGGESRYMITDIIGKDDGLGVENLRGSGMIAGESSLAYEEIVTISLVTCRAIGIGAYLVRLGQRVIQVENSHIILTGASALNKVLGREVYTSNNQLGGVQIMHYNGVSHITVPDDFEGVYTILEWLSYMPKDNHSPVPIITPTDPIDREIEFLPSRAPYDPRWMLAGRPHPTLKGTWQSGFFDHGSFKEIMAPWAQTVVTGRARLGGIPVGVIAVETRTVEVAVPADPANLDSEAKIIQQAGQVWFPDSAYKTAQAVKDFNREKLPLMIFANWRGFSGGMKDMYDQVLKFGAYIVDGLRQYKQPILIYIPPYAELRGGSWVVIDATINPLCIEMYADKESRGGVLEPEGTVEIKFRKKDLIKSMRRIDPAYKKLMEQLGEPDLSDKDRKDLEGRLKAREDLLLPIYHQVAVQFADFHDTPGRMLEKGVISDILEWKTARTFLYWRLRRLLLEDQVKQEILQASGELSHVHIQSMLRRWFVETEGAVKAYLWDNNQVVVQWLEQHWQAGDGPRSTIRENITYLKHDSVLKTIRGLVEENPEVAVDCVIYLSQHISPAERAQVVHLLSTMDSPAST

SMILES	pIC50
C[C@@H](CO[C@H]1CC[C@H](Oc2nc3c(F)cc(OCC(F)F)c(F)c3n2C)CC1)NC(=O)c1cnn(C)c1 [Compound I-629]	7.01
CC(=O)N[C@@H](C)CO[C@H]1CC[C@H](Oc2nc3c(C)nc(OC4CC4)c(F)c3n2C)CC1 [Compound I-632]	7.72
CCOc1cc(F)c2c(nc(O[C@H]3CC[C@H](OC[C@H](C)NC(C)=O)CC3)n2C)c1F [Compound I-635]	6.98
CCOc1cc2c(nc(O[C@H]3CC[C@H](OC[C@H](C)NC(C)=O)CC3)n2C)c(F)n1 [Compound I-641]	7.14
CC(=O)N[C@@H](C)CO[C@H]1CC[C@H](Oc2nc3c(Cl)cc(C4CC4)cc3n2C)CC1 [Compound I-648]	6.96
CCOc1cc(Cl)c2nc(O[C@H]3CC[C@H](OC[C@H](C)NC(C)=O)CC3)n(C)c2c1F [Compound I-651]	8.40
CC(=O)N[C@@H](C)CO[C@H]1CC[C@H](Oc2nc3c(C#N)cc(OCC(F)F)c(F)c3n2C)CC1 [Compound I-653]	7.19
CC(=O)N[C@@H](C)CO[C@H]1CC[C@H](Oc2nc3c(F)cc(OC4CC4)c(Cl)c3n2C)CC1 [Compound I-655]	8.70
CC(=O)N[C@@H](C)[C@H](C)O[C@H]1CC[C@H](Oc2nc3c(F)cc(OCC(F)F)c(F)c3n2C)CC1 [Compound I-659]	7.64
CCOc1ccc2nc(O[C@H]3CC[C@H](OC[C@H](C)NC(C)=O)CC3)n(C)c2c1-c1ccccc1 [Compound I-661]	6.34
CC(=O)N[C@@H](C)CO[C@H]1CC[C@H](Oc2nc3cnc(OCC4CC4)c(Cl)c3n2C)CC1 [Compound I-662]	8.30
CC(=O)N[C@@H](C)CO[C@H]1CC[C@H](Oc2nc3c(C#N)cc(C4CC4)cc3n2C)CC1 [Compound I-663]	6.15
C[C@@H](CO[C@H]1CC[C@H](Oc2nc3c(F)cc(OC4CC4)c(F)c3n2C)CC1)NC(=O)CO [Compound I-668]	8.15
CC(=O)N[C@@H](CO)CO[C@H]1CC[C@H](Oc2nc3cnc(OCC(F)F)c(Cl)c3n2C)CC1 [Compound I-669]	6.21
C[C@@H](CO[C@H]1CC[C@H](Oc2nc3c(F)cc(OCC(F)F)c(F)c3n2C)CC1)NC(N)=O [Compound I-670]	7.96
COC(=O)N[C@@H](C)CO[C@H]1CC[C@H](Oc2nc3c(F)cc(OCC(F)F)c(F)c3n2C)CC1 [Compound I-672]	7.52
CC(=O)N[C@@H](C)CO[C@H]1CC[C@H](Oc2nc3ccc(OCC(F)F)c(F)c3n2C)CC1 [Compound I-677]	7.89
CC(=O)N[C@@H](C)CO[C@H]1CC[C@H](Oc2nc3c(Cl)cc(Br)cc3n2C)CC1 [Compound I-678]	6.91
CCOc1c(F)cc2c(nc(O[C@H]3CC[C@H](OC[C@H](C)NC(C)=O)CC3)n2C)c1F [Compound I-685]	6.77
CCOc1nc(F)c2nc(O[C@H]3CC[C@H](OC[C@H](C)NC(C)=O)CC3)n(C)c2c1Cl [Compound I-686]	8.30
C[C@@H](CO[C@H]1CC[C@H](Oc2nc3c(F)cc(OCC(F)F)c(Cl)c3n2C)CC1)NC(N)=O [Compound I-687]	7.85
CC(=O)N[C@@H](C)CC[C@@H]1CC[C@@H](Oc2nc3c(F)cc(OCC(F)F)c(Cl)c3n2C)CO1 [Compound I-688]	8.40
CC(=O)N[C@@H](C)CO[C@H]1CC[C@H](Oc2nc3cnc(C4CC4)c(Cl)c3n2C)CC1 [Compound I-695]	7.02
C[C@@H](CO[C@H]1CC[C@H](Oc2nc3c(F)cc(OC4CC4)c(F)c3n2C)CC1)NC(N)=O [Compound I-697]	8.40
CCOc1c(F)cc2nc(O[C@H]3CC[C@H](OC[C@H](C)NC(C)=O)CC3)n(C)c2c1F [Compound I-698]	8.52
CC(=O)N[C@@H](CF)CO[C@H]1CC[C@H](Oc2nc3c(F)cc(OCC(F)F)c(F)c3n2C)CC1 [Compound I-700]	8.05

Results, then the molecule that gave them:

pIC50	SMILES
7.60	CC(=O)N[C@@H](C)CO[C@H]1CC[C@H](Oc2nc3c(F)cc(F)c(F)c3n2C)CC1 [Compound I-630]
8.00	C[C@@H](CO[C@H]1CC[C@H](Oc2nc3c(F)cc(OCC(F)F)c(F)c3n2C)CC1)NC(=O)N(C)C [Compound I-631]
7.47	CC(=O)N[C@@H](C)CO[C@H]1CC[C@H](Oc2nc3cnc(OCc4ccccc4)c(F)c3n2C)CC1 [Compound I-634]
8.40	CC(=O)N[C@@H](C)CC[C@H]1CC[C@H](Oc2nc3cnc(OC4CC4)c(Cl)c3n2C)CC1 [Compound I-636]
8.40	CC(=O)N[C@@H](C)CO[C@H]1CC[C@H](Oc2nc3c(F)cc(OCC(F)F)c(Cl)c3n2C)CC1 [Compound I-637]
6.85	CC(=O)N[C@@H](C)CO[C@H]1CC[C@H](Oc2nc3c(Cl)ccc(F)c3n2C)CC1 [Compound I-638]
8.70	CC(=O)N[C@@H](C)CO[C@H]1CC[C@H](Oc2nc3c(F)cc(OC4CCC4)c(F)c3n2C)CC1 [Compound I-639]
6.96	C[C@@H](CO[C@H]1CC[C@H](Oc2nc3c(F)cc(OCC(F)F)c(F)c3n2C)CC1)NC(=O)COC(N)=O [Compound I-640]
8.15	CC(=O)N[C@@H](C)CC[C@H]1CC[C@H](Oc2nc3c(F)cc(OCC(F)F)c(F)c3n2C)CO1 [Compound I-642]
6.60	CC(=O)N[C@@H](C)C(F)(F)C[C@@H]1CC[C@@H](Oc2nc3c(F)cc(OCC(F)F)c(F)c3n2C)CO1 [Compound I-643]
7.59	CC(=O)N[C@@H](C)CC[C@H]1OC[C@H](Oc2nc3cnc(OCC(F)F)c(Cl)c3n2C)C[C@@H]1C [Compound I-644]
7.82	CCOc1ncc2nc(O[C@H]3CC[C@H](OC[C@H](C)NC(C)=O)CC3)n(C)c2c1Cl [Compound I-646]
8.22	CC(=O)N[C@@H](C)CO[C@H]1CC[C@H](Oc2nc3cnc(OC(C)C)c(Cl)c3n2C)CC1 [Compound I-647]
8.05	CC(=O)N[C@@H](C)CO[C@H]1CC[C@H](Oc2nc3c(Cl)cc(Oc4ccccc4)cc3n2C)CC1 [Compound I-649]
6.43	CC(=O)N[C@@H](C)CO[C@H]1CC[C@H](Oc2nc3c(C4CC4)cc(OCC(F)F)cc3n2C)CC1 [Compound I-650]
8.15	CC(=O)N[C@@H](C)CO[C@H]1CC[C@H](Oc2nc3c(F)cc(OCc4ccccc4)c(F)c3n2C)CC1 [Compound I-652]
7.41	C[C@@H](CO[C@H]1CC[C@H](Oc2nc3c(F)cc(OCC(F)F)c(F)c3n2C)CC1)NC(=O)c1cn[nH]c1 [Compound I-656]
7.85	CC(=O)N[C@@H](C)CC[C@H]1CC[C@H](Oc2nc3cnc(OCC(F)F)c(Cl)c3n2C)CO1 [Compound I-657]
8.40	CC(=O)N[C@@H](C)CO[C@H]1CC[C@H](Oc2nc3cc(F)c(OCC(F)F)c(F)c3n2C)CC1 [Compound I-658]
7.96	CC(=O)N[C@@H](C)CO[C@H]1CC[C@H](Oc2nc3cnc(OC4(C)CC4)c(Cl)c3n2C)CC1 [Compound I-664]

pIC50	SMILES
8.40	CCOc1cc(F)c2nc(O[C@H]3CC[C@H](OC[C@H](C)NC(C)=O)CC3)n(C)c2c1F [Compound I-665]
6.53	COc1cc(OCc2ccccc2)cc2c1nc(O[C@H]1CC[C@H](OC[C@H](C)NC(C)=O)CC1)n2C [Compound I-666]
8.10	CC(=O)N[C@@H](C)CO[C@H]1CC[C@H](Oc2nc3cnc(OC4CC4)c(F)c3n2C)CC1 [Compound I-667]
7.96	C[C@@H](CO[C@H]1CC[C@H](Oc2nc3c(F)cc(OC4CC4)c(F)c3n2C)CC1)NS(C)(=O)=O [Compound I-671]
6.19	CC(=O)N[C@@H](C)CO[C@H]1CC[C@H](Oc2nc3c(C(N)=O)cc(OC4CC4)c(F)c3n2C)CC1 [Compound I-673]
8.15	C[C@@H](CC[C@@H]1CC[C@@H](Oc2nc3c(F)cc(OCC(F)F)c(Cl)c3n2C)CO1)NC(N)=O [Compound I-674]
7.74	CC(=O)N[C@@H](C)[C@H](C)O[C@H]1CC[C@H](Oc2nc3cnc(OCC(F)F)c(Cl)c3n2C)CC1 [Compound I-675]
6.20	CC(=O)N[C@@H](C)CO[C@H]1CC[C@H](Oc2nc3c(C#N)cc(OCC(F)F)cc3n2C)CC1 [Compound I-679]
6.85	CC(=O)N[C@@H](C)CO[C@H]1CC[C@H](Oc2nc3c(Br)cc(OCC(F)F)cc3n2C)CC1 [Compound I-680]
8.30	C[C@@H](CC[C@H]1CC[C@H](Oc2nc3cnc(OC4CC4)c(Cl)c3n2C)CC1)NC(N)=O [Compound I-682]
8.52	C[C@@H](CO[C@H]1CC[C@H](Oc2nc3c(F)cc(OC4CC4)c(F)c3n2C)CC1)NC(=O)C(F)F [Compound I-683]
8.22	CC(=O)N[C@@H](C)CC[C@@H]1CC[C@@H](Oc2nc3cnc(OCC(F)F)c(Cl)c3n2C)CO1 [Compound I-684]
7.60	CC(=O)N[C@@H](C)[C@H](C)O[C@H]1CC[C@H](Oc2nc3cnc(OC4CC4)c(F)c3n2C)CC1 [Compound I-689]
7.60	CC(=O)N[C@@H](C)CO[C@H]1CC[C@H](Oc2nc3ccc(Br)c(F)c3n2C)CC1 [Compound I-691]
7.47	CCOc1cc(Cl)c2nc(O[C@H]3CC[C@H](OC[C@H](C)NC(C)=O)CC3)n(C)c2c1 [Compound I-692]
8.10	CC(=O)N[C@@H](C)CO[C@H]1CC[C@H](Oc2nc3cnc(OC4CC(F)(F)C4)c(Cl)c3n2C)CC1 [Compound I-693]
7.89	CCOc1ncc2nc(O[C@H]3CC[C@H](OC[C@H](C)NC(C)=O)CC3)n(C)c2c1F [Compound I-694]
6.30	COC(=O)NC(=O)N[C@@H](C)CO[C@H]1CC[C@H](Oc2nc3cnc(OC4CC4)c(Cl)c3n2C)CC1 [Compound I-696]
7.64	CNC(=O)N[C@@H](C)CO[C@H]1CC[C@H](Oc2nc3c(F)cc(OCC(F)F)c(F)c3n2C)CC1 [Compound I-701]
7.82	CC(=O)N[C@@H](C)CO[C@H]1OC[C@@H](Oc2nc3c(F)cc(OCC(F)F)c(F)c3n2C)C[C@@H]1C [Compound I-702]
